Results from patent US20200345021A1, “METHOD AND SYSTEM FOR ENHANCING THE EFFICACY USING IONIZED/A[…] PEROXIDE IN REDUCING MICROBIAL POPULATIONS, METHOD OF USE THEREOF” (priority 2019, published 2020).
Where “and” joins values, the source holds several entries; their conditions need not be identical. Identical values can stand only once. Like-named read-outs stand apart in the source and are kept apart here. Marks after values point to notes of the source that are not given here.

Legend:
Salmonella Typhimurium = type: cell-based
Text: (§1) To minimize the risk of possible bacteria becoming airborne during treatments, attenuated and non-pathogenic bacteria were used in the study. Two strains of non-pathogenic S. Typhimurium (ATCC 53647 and 53648) and three strains of L. innocua (ATCC 33090, ATCC 51742 and ATCC BAA680) were obtained from American Type Culture Collection (ATCC) (Manassas, Va., USA). Further studies used E. coli O157:H7 (ATCC 700728), S. Typhimurium (ATCC 53647 and 53648), and L. innocua (ATCC 33090) obtained from American Type Culture Collection (ATCC) (Manassas, Va., USA) and maintained as a part of the culture collection at the USDA Eastern Regional Research Center (Wyndmoor, Pa. USA). The bacteria were made to be resistant to nalidixic acid by successive growth in Trypic Soy Broth (TSB) (Difco, Sparks, Md., USA) with increasing nalidixic acid concentrations. All strains were stored at −80° C. in 1 mL of TSB containing 10% glycerol. Working cultures of S. Typhimurium and L. innocua were maintained in 9 mL TSB (supplemented with 100 μg/mL nalidixic acid for S. Typhimurium) at 4° C. after incubating at 37° C. for […], respectively, and sub-cultured each time.
(§2) Each strain of S. Typhimurium and L. innocua was cultured in 9 mL TSB (supplemented with 100 μg/mL nalidixic acid for S. Typhimurium) and incubated at 37° C. for 40 h and 48 h, respectively, harvested by centrifugation at 4000×g for 10 min at 4° C., and resuspended in 9 mL sterile Buffered Peptone Water (BPW; Difco). The pellets were resuspended in BPW to form cell suspensions with a final concentration of 108˜10^9 CFU/mL. Subsequently, suspended pellets of two strains of Salmonella and three strains of L. innocua were combined to obtain two separate culture cocktails.
(§3) Grape tomatoes, granny smith apples, romaine lettuce and cantaloupes were purchased from local markets (Philadelphia, Pa., USA) and kept at 10° C. prior to use. Fruits and vegetables were removed from 10° C. refrigeration and equilibrated to ambient temperature before being inoculated. Romaine lettuce was divided into upper green leaf and midrib tissues. Six tomatoes, six pieces (2×2 cm) of apple skins, five pieces (3×3 cm) of Romaine lettuce upper leaves, five pieces (3 cm length) of Romaine lettuce midrib area and six pieces (2×2 cm) of cantaloupe rinds with 2×3 mm thickness of flesh were used for each treatment per replicate. Bach piece w as spot inoculated with 10 μL of Salmonella and L. innocua by depositing droplets with a micropipette. The inoculated samples were dried in a bio-hood for 1 h (for tomato surfaces, romaine lettuce, apple skins and cantaloupe rinds) or 2 h (for tomato stem scars) at ambient temperature.
(§4) Produce items were placed onto a sterile test tube rack with the inoculated area facing up and the rack with produce pieces were placed inside of a treatment chamber (12×12×24 inch).
(§5) Therefore, each kind of produce was treated with and without cold plasma ionized under the same optimized conditions.
(§6) After each treatment, the tomato stem scars and surfaces with the inoculated bacteria were removed using a pair of sterile scissors. Each type of produce item from the same treatment was combined (total weight: 1.51±0.29 g for tomato stem scars; 2.07±0.15 g for tomato surfaces; 6.37±0.92 g for apple skins; 1.62±0.34 g for Romaine lettuce upper leaves: 13.30±2.97 g for Romaine lettuce midrib tissues: 9.58±1.26 g for cantaloupe rinds) and transferred into an 80 mL filtered stomacher bag. After addition of 30 mL BBL buffered peptone water into the bag, the sample in the bag was homogenized using a mini blender (Mini Mix CC, Interscience laboratories Inc., Woburn, Mass., USA) for 2 min at a setting of 4. […] Tryptic Soy Agar with 200 μg/mL pyruvate acid and 100 μg/mL nalidixic acid (TSA-PN) and PALCAM Agars (Difco) were used for the enumeration of S. Typhimurium and L. innocua, respectively.

Listeria innocua = assay: Effect of cold plasma activation on efficacy of ionized/aerosolized H2O2 against Listeria innocua (Study 2); type: cell-based
Text: as §1, §2, §3, §4, §5, §6

[1] = Cantaloupe rind, 30 s spray time + 30 min dwell
[2] = Romaine lettuce-midrib, 30 s spray time + 30 min dwell
[3] = Romaine lettuce-upper leaf, 30 s spray time + 30 min dwell
[4] = Tomato-stem scar, three cycles of 20 s spray time plus 20 min dwell time
[5] = Tomato-surface, 8 s spray time + 30 min dwell

OO [H2O2 − cold plasma, hydrogen peroxide]
Populations of Salmonella Typhimurium (Salmonella Typhimurium; [1]): 4.83 ± 0.36^b log CFU/piece | Reductions of Salmonella Typhimurium (Salmonella Typhimurium; [1]): 1.54 ± 0.36^y log CFU/piece | Reductions of Salmonella Typhimurium (Salmonella Typhimurium; Granny Smith apples, 8 s spray time + 30 min dwell): 2.08 ± 0.17^y log CFU/piece | Populations of Salmonella Typhimurium (Salmonella Typhimurium; Granny Smith apples, 8 s spray time + 30 min dwell, ND: not detectable (detection limit 0.70 log CFU/piece)): 3.77 ± 0.17^b log CFU/piece | Reductions of Salmonella Typhimurium (Salmonella Typhimurium; Granny Smith apples, 8 s spray time + 30 min dwell, listed as hydrogen peroxide (H2O2) aerosols without cold plasma): 2.08 log CFU/piece | Populations of Salmonella Typhimurium (Salmonella Typhimurium; [2]): 4.16 ± 0.28^b log CFU/piece | Reductions of Salmonella Typhimurium (Salmonella Typhimurium; [2]): 1.78 ± 0.28^y log CFU/piece | Populations of Salmonella Typhimurium (Salmonella Typhimurium; [3]): 4.70 ± 0.23^b log CFU/piece | Reductions of Salmonella Typhimurium (Salmonella Typhimurium; [3]): 1.72 ± 0.23^y log CFU/piece | Populations of Salmonella Typhimurium (Salmonella Typhimurium; [4]): 4.40 ± 0.28^b log CFU/piece | Reductions of Salmonella Typhimurium (Salmonella Typhimurium; [4]): 1.54 ± 0.28^y log CFU/piece | Reductions of Salmonella Typhimurium (Salmonella Typhimurium; [5]): 3.17 ± 0.33^y log CFU/piece | Populations of Salmonella Typhimurium (Salmonella Typhimurium; Tomato-surface, 8 s spray time + 30 min dwell, ND: not detectable (detection limit 0.70 log CFU/piece)): 2.46 ± 0.33^b log CFU/piece | Reductions of Salmonella Typhimurium (Salmonella Typhimurium; Tomato-surface, 8 s spray time + 30 min dwell, listed as hydrogen peroxide (H2O2) aerosols without cold plasma): 3.17 log CFU/piece | Reductions of Salmonella, range over the fresh produce items (Salmonella Typhimurium; all tested produce items and surfaces, optimized conditions, listed as hydrogen peroxide (H2O2) aerosols without cold plasma): 1.54-3.17 log CFU/piece and 1.53-3.17 log CFU/piece | Reductions of Listeria innocua (Listeria innocua; [1]): 1.57 ± 0.37^y log CFU/piece | Populations of Listeria innocua (Listeria innocua; Cantaloupe rind, 30 s spray time + 30 min dwell, ND1: not detectable (detection limit 0.70 log CFU/piece)): 3.88 ± 0.37^b log CFU/piece | Reductions of Listeria innocua (Listeria innocua; Granny Smith apple, 8 s spray time + 30 min dwell): 2.69 ± 0.20^y log CFU/piece | Populations of Listeria innocua (Listeria innocua; Granny Smith apple, 8 s spray time + 30 min dwell, ND1: not detectable (detection limit 0.70 log CFU/piece)): 2.90 ± 0.20^b log CFU/piece | Reductions of Listeria innocua (Listeria innocua; [2]): 3.77 ± 0.35^y log CFU/piece | Populations of Listeria innocua (Listeria innocua; Romaine lettuce-midrib, 30 s spray time + 30 min dwell, ND2: not detectable (detection limit 0.76 log CFU/piece)): 1.82 ± 0.35^b log CFU/piece | Reductions of Listeria innocua (Listeria innocua; Romaine lettuce-midrib, 30 s spray time + 30 min dwell, listed as hydrogen peroxide (H2O2) aerosols without cold plasma): 3.77 log CFU/piece | Reductions of Listeria innocua (Listeria innocua; [3]): 2.77 ± 0.34^y log CFU/piece | Populations of Listeria innocua (Listeria innocua; Romaine lettuce-upper leaf, 30 s spray time + 30 min dwell, ND2: not detectable (detection limit 0.76 log CFU/piece)): 2.80 ± 0.34^b log CFU/piece | Populations of Listeria innocua (Listeria innocua; [4]): 4.21 ± 0.60^b log CFU/piece | Reductions of Listeria innocua (Listeria innocua; [4]): 1.35 ± 0.60^y log CFU/piece | Reductions of Listeria innocua (Listeria innocua; Tomato-stem scar, three cycles of 20 s spray time plus 20 min dwell time, listed as hydrogen peroxide (H2O2) aerosols without cold plasma): 1.35 log CFU/piece | Reductions of Listeria innocua (Listeria innocua; [5]): 2.74 ± 0.21^y log CFU/piece | Populations of Listeria innocua (Listeria innocua; Tomato-surface, 8 s spray time + 30 min dwell, ND1: not detectable (detection limit 0.70 log CFU/piece)): 2.77 ± 0.21^b log CFU/piece
